Test results: patent publication US20050169914A1, “Novel functions for decay accelerating factor (DAF) in inflammation” (priority 2003, published 2005)
Where no end group is shown, it is not given here. The star is where a group is joined. Biotin = O=C1N[C@H]2[C@H](CS[C@H]2CCCCC(=O)*)N1

How the values were obtained:
[1] = system: CD55 mRNA expression; experiment: Hypoxia-induced CD55 mRNA expression in Caco2 cells with transcriptional inhibitor; format: cell-based, human; details: DRB 10 μM
Procedure: First, it was determined whether hypoxia-induced CD55 results from increased transcriptional activity. Caco2 cells were subjected to hypoxia in the presence or absence of the transcriptional inhibitor 5,6-dichlorobenzimidazole riboside (DRB, 10 μM) and assessed for changes in CD55 mRNA expression. […] Consequently, increases in CD55 by hypoxia required new mRNA synthesis.

[2] = system: PMN transmigration across epithelial monolayer; experiment: Kinetic PMN transmigration assay with DAF mimetic peptides; format: cell-based, human; details: for rank order of potency in kinetic PMN transmigration assay: compared to no peptide controls
Procedure: Transmigration assay. PMN transmigration assays were performed as previously described (Nicholson-Weller et al., 1994, J. Lab. Clin. Med. 123: 485-91). All epithelial experiments were performed in the physiologically-relevant basolateral-to-apical direction (i.e. inverted monolayers), unless otherwise indicated, and all HMVEC transmigration studies were performed in the apical-to-basolateral direction. Briefly, PMN (1×10^6) were added to the upper chambers of transwell inserts in which T84, KB or Caco2 cell monolayers, as indicated, were plated on the opposing side. A chemotactic gradient was established by adding n-formyl-methionyl-leucyl-phenylalanine (fMLP) to the lower chambers (1 μM for Caco2 and T84 epithelia and 10 nM for KB cells and HMVEC). PMN transmigration was carried out at 37° C. for 1 hour with KB and HMVEC monolayers and 2 hrs for T84 monolayers. Transmigrated PMN were quantified by assaying for the PMN azurophilic marker myeloperoxidase (MPO), as previously described (Lisanti et al., 1990, J. Memb. Biol. 113: 155-167). Briefly, transmigrated PMN were lysed by the addition of Triton X-100 to a final concentration 0.5%. The samples were acidified with citrate buffer (final concentration 100 mM; pH 4.2). An aliquot of sample (70 μl) was added to an equal volume of ABTS solution (1 mM ABTS (2.2′-Azino-bis(3-ethylbenzo-thiazoline-6-sulfonic acid), 0.03% H2O2, 100 mM sodium citrate buffer; pH 4.2) in a 96-well plate. The resulting color was quantitated on a plate reader at 405 nm. For kinetic transmigration and post-transmigration adhesion assays, monolayers were removed at the desired time point and placed in a new 24-well plate with HBSS and spun at 50×g for 5 min to dislodge PMN adherent to the monolayer (Liu et al., 2001, J. Biol. Chem. 276: 40156-66). PMN were quantified by MPO assay as stated above. Where indicated, polyclonal DAF antisera (a kind gift from Dr. B. Paul Morgan, University of Wales) or control polyclonal platelet-endothelial cell adhesion (PE-CAM, a kind gift from Dr. Joyce Bischoff, Children's Hospital and Harvard Medical School) antisera were used to assess transmigration.
Phage panning of OE-1. The OE-1 binding epitope was analyzed using phage display (Burritt et al., 1998, J. Biol. Chem. 273:24847-52). Briefly, sepharose-coupled OE-1 was incubated with 20-μL aliquots of the random 9-mer LL9 phage library (˜5×10^10 phage) in 1 mL HBSS containing 0.1% bovine serum albumin (phage buffer) for 2 hours at 4° C. or for 1 hour at 20° C. in a 1.5-ml microcentrifuge tube as described previously (Mazzucchelli et al., 1999, Blood 93: 1738-48). Antibody complexes were then washed five times with phage buffer and bound phage were eluted for 5 minutes in 2 mL of 0.1M glycine (pH 2.2) followed by addition of phage buffer containing 0.5% Tween 20 to the remaining cell pellet. After neutralization with Tris buffer pH 8.1, the titer of phage was determined in each fraction by plaque assay according to standard procedures. Phage elutes were then amplified in “starved” K91 E. coli on solid LB agar containing 75 μg/mL kanamycin, purified by precipitation with polyethylene glycol, and resuspended in 600 μL NaCl/HEPES buffer. An aliquot (20 μL) of purified phage was subsequently re-applied to a new aliquot of sepharose-coupled OE-1 for a total of three affinity purification and two amplification steps. Individual phage clones were then isolated, amplified, and the random peptide sequences were deduced after sequencing the unique nucleotide region of the pIII protein. As a control for OE-1-specific selection, parallel phage affinity purification steps were carried out in a 1.5-mL microcentrifuge tube in the absence of OE-1, and a sample of the recovered phage was analyzed by sequencing of the DNA insert. […]

[3] = system: surface of intact PMN; experiment: Binding of biotinylated peptide to intact PMN (rhodamine-streptavidin fluorescence); parameters: species or system human; details: peptide 10 μg/ml, 4° C., 1 hr
Procedure: In subsets of experiments, peptides were biotinylated (sulfo-NHS-Biotin, Pierce, Rockford, Ill.), purified by reversed phase HPLC, and tested for binding to PMN. Briefly, PMN (10^7 PMN in 1 ml) were incubated with biotinylated peptide DAF peptide or control peptide (each at 10 μg/ml) at 4° C. for 1 hr. PMN were washed three times in HBSS, and incubated with rhodamine-labeled steptavidin (Roche Diagnostics, Indianapolis, Ind.). Samples were aliquoted on a 96 well plate and fluorescence intensity (excitation, 550 nm; emission, 580 nm), expressed as relative fluorescence units (RFU) was measured on a fluorescent plate reader (Cytofluor™2300, Millipore Inc., Bedford, Mass.).

[4] = system: OE-1 mAb binding to intact epithelial cell surface protein; experiment: Peptide blocking of OE-1 binding, cell surface ELISA on intact T84 cells; details: concentration-dependent
[5] = system: OE-1 mAb binding to denatured protein; experiment: Peptide blocking of OE-1 binding, western blot of T84 epithelial lysates; details: concentration-dependent
Procedure: Immunoblotting experiments. Indicated cells were grown to confluency on 100 mm plastic Petri dishes. The monolayers were lysed for 10 min in 1 ml lysis buffer (150 mM NaCl, 25 mM Tris, pH 8.0, 5 mM EDTA, 2% n-octylglucoside, and 10% mammalian tissue protease inhibitor cocktail; Sigma, St. Louis, Mo.), scraped and collected into microfuge tubes. After spinning at 14,000×g to remove cell debris, the pellet was discarded. Proteins were solublized in non-reducing Laemmli sample buffer and heated to 100° C. for 5 minutes. Samples were resolved on a 10% polyacrylamide gel and transferred to nitrocellulose membranes. The membranes were blocked 1 hr at room temperature in PBS supplemented with 0.2% Tween-20 (PBS-T) and 4% BSA. […] The wash was repeated and proteins were detected by enhanced chemiluminescence.
Phage panning of OE-1. The OE-1 binding epitope was analyzed using phage display (Burritt et al., 1998, J. Biol. Chem. 273:24847-52). […] After neutralization with Tris buffer pH 8.1, the titer of phage was determined in each fraction by plaque assay according to standard procedures. […] As a control for OE-1-specific selection, parallel phage affinity purification steps were carried out in a 1.5-mL microcentrifuge tube in the absence of OE-1, and a sample of the recovered phage was analyzed by sequencing of the DNA insert. […]

[6] = system: surface expressed DAF; experiment: DAF suppression in Caco2 cells (immunoprecipitation of surface biotinylated protein); format: cell-based, human; details: Caco2, relative to oligonucleotide controls, n=3
Procedure: DAF suppression studies. Caco2 cells were chosen for these experiments because they are more easily transfected than T84 cells. Confluent Caco2 monolayers were dislodged from T175 flasks with trypsin. Cells were washed once in serum-free DMEM. To 100 μl serum free media, 10 μl DAF siRNA ribonucleotide (20 μM each of sense 5′-[…]dTdT-3′ (SEQ ID NO: 31) and antisense 3′-dTd[…]-5′ (SEQ ID NO: 32), synthesized by Xeragon, Inc., Germantown, Md.) or 10 μl phosphorothioate derivatives of DAF antisense oligonucleotide (20 μM; 5′-[…]-3′ (SEQ ID NO: 33), synthesized by Oligo's Etc., Wilsonville, Oreg.) was added. In both cases, a control oligonucleotide (5′-ATG GAG GGC GCC GGC-3′, SEQ ID NO: 34) was used in parallel. To these solutions 10 μl Superfect transfection reagent (Qiagen, Valencia, Calif.) was added. The tubes were vortexed and incubated at room temperature for 10 min to allow transfection complexes formation. Following this incubation, 400 μl of serum containing media was added to the complexes, followed by 800 μl of cell suspension. […]
As a third approach, antisense oligonucleotides and siRNA technologies were utilized to diminish surface expressed DAF and examined the kinetics of PMN migration across such monolayers of epithelia. […] In panels B and C, the influence of siRNA (diamonds), antisense oligonucleotide (squares) on the kinetics of transmigration was assessed. […]

[7] = system: PMN transmigration across Caco2 monolayers; experiment: Kinetic PMN transmigration across DAF-depleted Caco2 monolayers; format: cell-based, human
Procedure: Transmigration assay. PMN transmigration assays were performed as previously described (Nicholson-Weller et al., 1994, J. Lab. Clin. Med. 123: 485-91). All epithelial experiments were performed in the physiologically-relevant basolateral-to-apical direction (i.e. inverted monolayers), unless otherwise indicated, and all HMVEC transmigration studies were performed in the apical-to-basolateral direction. Briefly, PMN (1×10^6) were added to the upper chambers of transwell inserts in which T84, KB or Caco2 cell monolayers, as indicated, were plated on the opposing side. […] Transmigrated PMN were quantified by assaying for the PMN azurophilic marker myeloperoxidase (MPO), as previously described (Lisanti et al., 1990, J. Memb. Biol. 113: 155-167). […] An aliquot of sample (70 μl) was added to an equal volume of ABTS solution (1 mM ABTS (2.2′-Azino-bis(3-ethylbenzo-thiazoline-6-sulfonic acid), 0.03% H2O2, 100 mM sodium citrate buffer; pH 4.2) in a 96-well plate. The resulting color was quantitated on a plate reader at 405 nm. For kinetic transmigration and post-transmigration adhesion assays, monolayers were removed at the desired time point and placed in a new 24-well plate with HBSS and spun at 50×g for 5 min to dislodge PMN adherent to the monolayer (Liu et al., 2001, J. Biol. Chem. 276: 40156-66). PMN were quantified by MPO assay as stated above. […]

Compound: OC[C@H]1O[C@@H](n2cnc3cc(Cl)c(Cl)cc32)[C@H](O)[C@@H]1O [DRB, 5,6-dichlorobenzimidazole riboside]
- decrease in CD55 inducibility by hypoxia [1]: 87±7%

Compound: AVAHWYRSG [Peptide 1]
- rank order of potency in kinetic PMN transmigration assay ([2]; 1 mM final concentration): Wild-type>Peptide 2=Peptide 1>Peptide 3

Compound: Biotin-EVEHWYRSG
- fluorescence intensity (binding to surface of intact PMN) [3]: 2,188±383 RFU

Compound: EVEHAYRSG [Peptide 2]
- rank order of potency in kinetic PMN transmigration assay ([2]; 1 mM final concentration): Wild-type>Peptide 2=Peptide 1>Peptide 3

Compound: EVEHWARSG [Peptide 3]
- rank order of potency in kinetic PMN transmigration assay ([2]; 1 mM final concentration): Wild-type>Peptide 2=Peptide 1>Peptide 3

Compound: EVEHWYASG [Peptide 4]
- effect on PMN transmigration relative to no peptide controls ([2]; 1 mM final concentration): appeared to enhance PMN transmigration

Compound: EVEHWYRSG
- blocking of OE-1 binding to intact epithelial cell surface protein [4]: blocked OE-1 binding
- blocking of OE-1 binding to denatured protein [5]: blocked OE-1 binding
- rank order of potency in kinetic PMN transmigration assay ([2]; 1 mM final concentration): Wild-type>Peptide 2=Peptide 1>Peptide 3
- apical accumulation of PMN ([2]; PMN and epithelial pre-exposure to increasing peptide concentrations, p<0.025): increased apical accumulation of PMN
- PMN transmigration ([2]; PMN and epithelial pre-exposure to increasing peptide concentrations, p<0.05): diminished PMN transmigration

Compound: SPLAQAVRSSSR [scrambled peptide, scrambled control peptide, reference compound]
- blocking of OE-1 binding to intact epithelial cell surface protein [4]: but not a scrambled peptide

Compound: siRNA: DAF siRNA ribonucleotide, sense 5′-AAUUCCUGGCGAGAAGGACUCdTdT-3′, antisense 3′-dTdTUUAAGGACCGCUCUUCCUGAG-5′ (sense AAUUCCUGGCGAGAAGGACUCNN; antisense NNUUAAGGACCGCUCUUCCUGAG; chemistry not fully specified; one strand is listed 3' to 5')
- decrease in surface expressed DAF [6]: 63±12%
- PMN transmigration across treated cells ([7]; Caco2, relative to mock or oligonucleotide control, p<0.025): significantly diminished
- apical PMN in DAF-depleted epithelia ([7]; Caco2, p<0.05 by ANOVA): significant increase over time
